Read-outs that look alike come from different tables or passages of the source.

One data set addresses HRV3C (Human rhinovirus 14, UniProt P03303). The data set is described as follows: HRV3C protease assay (duplex, SAMDI-MS). The following applies: 30 mins preincubation. It is filed as biochemical, HRV. The essentials:
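Duplex format with 3CLpro; 30 min enzyme–compound preincubation, 30 min reaction with two peptide substrates, ambient temp. Stop: 0.5% formic acid, neutralized with 1% NaHCO3 (finals). Readout SAMDI-MS, product AUC over internal standard AUC; four-parameter IC50.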

Data set [1] concerns human beta-coronavirus OC43. Nature of the data set: microbe, parasite or virus in culture. It is filed as cell-based. The following applies: Betacoronavirus 1, OC43, HeLa, 144 h, OC43 in HeLa cells, 6 days at 33° C., read-out: EC50.
Data set [2] can be described thus: Cytotoxicity plates without OC43 virus (cell-titer-glo). It counts as cell-based, human. The note with it: human; HeLa cells without OC43 virus, class symbols. In a few lines:
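HeLa cells seeded overnight, then treated with serially diluted compounds in 2% FBS EMEM, uninfected, in parallel with the OC43 antiviral plates. Incubated 6 days at 33 °C; viability read by CellTiter-Glo luminescence.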

Data set [3] relates to SARS-CoV-2-GHB-03021/2020. Nature of the data set: SARS-CoV-2 Infection Model in Huh7 Cells. It is filed as cell-based. The note with it: Severe acute respiratory syndrome coronavirus 2, Huh-7, 96 h, SARS-CoV-2, day 4 p.i., MTS.
Data set [4] deals with SARS-CoV-2-GHB-03021/2020. Nature of the data set: microbe, parasite or virus in culture. It is filed as cell-based.
In a further data set the target is T1, human cathepsin L (Homo sapiens, UniProt P07711).
T1 construct: purchased R&D Systems
Nature of the data set: cathepsin L assay. It is filed as biochemical. The note with it: 10 pM human cathepsin L, Z-FR-AMC 2 μM, class symbols. The essentials: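 Human cathepsin L at 10 pM was preincubated 30 min with compound, then reaction started with Z-FR-AMC (2 μM final). Fluorescence (355/460 nm) read every 2 min for 30 min; IC50 from four-parameter curve fit.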

Data set [5] in a line: in vitro. The following applies: human.
Data set [6] is described as follows: in vitro. The following applies: African green monkey, VeroE6 + CP (CC50).
A further data set deals with 3CLpro (Severe acute respiratory syndrome coronavirus 2, UniProt P0DTD1). The data set is described as follows: SARS-CoV-2 3CLpro protease assay (duplex, SAMDI-MS). On the set-up: For the duplex assay, 3CLpro and HRV3C was added. The following applies: 30 mins preincubation, class symbols. It is filed as biochemical.
[7] abbreviates: HRV3C, class symbols, read-out: HRV IC50.
[8] abbreviates: Severe acute respiratory syndrome coronavirus 2, Vero C1008, 96 h; read-out: VeroE6 + CP (EC50).
Setting [9] is: Vero E6-eGFP cells with CP-100356, absence of virus, MTS, class symbols.
Where [10] appears, read: 3CLpro, read-out: SARS-Cov-2 IC50.
[11] abbreviates: Vero E6-eGFP cells with CP-100356, absence of virus, MTS, numeric bounds.
The mark [12] stands for this setting: HRV3C, bound, read-out: HRV IC50.

As for `COc1cccc2[nH]c(C(=O)N3C[C@@H]4CCC[C@@H]4[C@H]3C(=O)N[C@@H](CC3CC(C)(C)NC3=O)C(=O)COCc3ccccc3)cc12` (relative stereo) [Compound 70A_1, (1S,3aR,6aS)—N-[(2S)-4-(benzyloxy)-1-[(3R*)-5,5-dimethyl-2-oxopyrrolidin-3-yl]-3-oxobutan-2-yl]-2-(4-methoxy-1H-indole-2-carbonyl)-hexahydro-1H-cyclopenta[c]pyrrole-1-carboxamide], the IC50 on HRV3C (setting [7]) was 2 to 20 µM; against human cathepsin L, at least 10 µM; on 3CLpro (setting [10]), 0.02 to 0.2 µM. The EC50 in data set [1] (class symbols) was under 0.1 µM; in [3] (class symbols), 1 to 10 µM; in [4] (setting [8]) it was 1 to 10 µM. This compound came in with a CC50 at 6 days in data set [2] of over 10 µM. Moreover, the CC50 in “in vitro [5]” and in the data set “in vitro [6]” (setting [9]) was over 10 µM throughout.

Regarding `COc1cccc2[nH]c(C(=O)N3C[C@@H]4CCC[C@@H]4[C@H]3C(=O)N[C@@H](CC3CC(C)(C)NC3=O)C(=O)CO)cc12` (relative stereo) [Compound 70_1, (1S,3aR,6aS)—N—((S)-1-((R*)-5,5-dimethyl-2-oxopyrrolidin-3-yl)-4-hydroxy-3-oxobutan-2-yl)-2-(4-methoxy-1H-indole-2-carbonyl)octahydrocyclopenta[c]pyrrole-1-carboxamide], the IC50 was 0.2 to 2 µM on HRV3C (setting [7]), at least 10 µM against human cathepsin L and under 0.02 µM on 3CLpro (setting [10]). The EC50 is 0.1 to 1 µM in data set [1] (class symbols), 1 to 10 µM in [3] (class symbols) and under 1 µM in data set [4] (setting [8]). Further, the CC50 at 6 days in [2] was over 10 µM. For the same compound, the CC50 in “in vitro [5]” and in the data set “in vitro [6]” (setting [9]) was over 10 µM in each case.

Turning to `COc1cccc2[nH]c(C(=O)N3C[C@@H]4CCCC[C@@H]4[C@H]3C(=O)N[C@@H](C[C@@H]3CCCNC3=O)C(=O)COCc3ccccc3)cc12` (single isomer, unassigned) [Compound 59A_1], the figures for the IC50 on HRV3C (setting [7]), on human cathepsin L and at 3CLpro (setting [10]) were 2 to 20 µM, at least 10 µM and 0.02 to 0.2 µM, respectively. In addition, the figures for the EC50 in [1] (class symbols), in data set [3] (class symbols) and in [4] (setting [8]) were 0.1 to 1 µM, under 1 µM and under 1 µM, respectively. The CC50 at 6 days in [2] was over 10 µM. Also, the CC50 in the data set “in vitro [5]” and in the data set “in vitro [6]” (setting [9]) was over 10 µM each time.

With `COc1cccc2[nH]c(C(=O)N3C[C@@H]4CCC[C@@H]4[C@H]3C(=O)N[C@@H](CC3CC(C)(C)NC3=O)C(=O)C(=O)NC3CC3)cc12` (single isomer, unassigned) [Compound 95, (3S)-3-{[(1S,3aR,6aS)-2-(4-methoxy-1H-indole-2-carbonyl)-hexahydro-1H-cyclopenta[c]pyrrol-1-yl]formamido}-N-cyclopropyl-4-[(3R*)-5,5-dimethyl-2-oxopyrrolidin-3-yl]-2-oxobutanamide], the IC50 is 0.2 to 2 µM against HRV3C (HRV IC50, HRV3C, class symbols); at least 10 µM against human cathepsin L; 0.02 to 0.2 µM at 3CLpro (setting [10]). For the same compound, the EC50 in data set [1] (class symbols) lay in the range of 0.1 to 1 µM; in data set [3] (class symbols), 1 to 10 µM; in [4] (setting [8]), 1 to 10 µM. In data set [2], the CC50 at 6 days was over 10 µM. Also, the CC50 in “in vitro [5]” and in “in vitro [6]” (setting [11]) was over 50 µM throughout.

Regarding `O=C(NCc1ccccc1)C(=O)[C@H](C[C@@H]1CCNC1=O)NC(=O)[C@@H]1C[C@@H](C2CCCCC2)CN1C(=O)c1cc2ccccc2[nH]1` [Compound 20], the IC50 on HRV3C (setting [7]) is 0.2 to 2 µM; against human cathepsin L, at least 10 µM; at 3CLpro (setting [10]), 0.2 to 2 µM. Moreover, the EC50 is under 0.1 µM in data set [1] (class symbols), over 100 µM in data set [3] (numeric bounds) and 1 to 10 µM in data set [4] (setting [8]). This compound also came in with a CC50 at 6 days in data set [2] of over 10 µM. This compound gave a CC50 in the data set “in vitro [5]” of 1 to 10 µM.

Turning to `COc1cccc2[nH]c(C(=O)N3C[C@@H]4CCC[C@@H]4[C@H]3C(=O)N[C@@H](C[C@@H]3CCCNC3=O)C(=O)CO)cc12` [Compound 41, (1S,3aR,6aS)—N-[(2S)-4-hydroxy-3-oxo-1-[(3S)-2-oxopiperidin-3-yl]butan-2-yl]-2-(4-methoxy-1H-indole-2-carbonyl)-hexahydro-1H-cyclopenta[c]pyrrole-1-carboxamide], the IC50 on HRV3C (setting [12]) is over 10 µM; on human cathepsin L, at least 10 µM. Moreover, the EC50 is under 0.1 µM in data set [1] (class symbols), 1 to 10 µM in [3] (class symbols) and 1 to 10 µM in [4] (setting [8]). The compound also showed a CC50 at 6 days in [2] of over 10 µM. In addition, the CC50 in the data set “in vitro [5]” and in “in vitro [6]” (setting [11]) was over 100 µM throughout.

In the case of `CS(=O)(=O)c1cccc2[nH]c(C(=O)N3C[C@@H]4CCC[C@@H]4[C@H]3C(=O)N[C@@H](C[C@@H]3CCNC3=O)C(=O)CO)cc12` [Compound 150, (1S,3aR,6aS)—N-[(2S)-4-hydroxy-3-oxo-1-[(3S)-2-oxopyrrolidin-3-yl]butan-2-yl]-2-(4-methanesulfonyl-1H-indole-2-carbonyl)-hexahydro-1H-cyclopenta[c]pyrrole-1-carboxamide], the EC50 is over 10 µM in data set [1] (bound); over 50 µM in data set [3] (numeric bounds); over 50 µM in [4] (Severe acute respiratory syndrome coronavirus 2, Vero C1008, 96 h, read-out: VeroE6 + CP (EC50)). For the same compound, the CC50 at 6 days in [2] is over 10 µM. Further, the IC50 on human cathepsin L is at least 10 µM; against 3CLpro (SARS-Cov-2 IC50, 3CLpro) it was 0.2 to 2 µM. Further, the CC50 in “in vitro [5]” and in “in vitro [6]” was over 50 µM each time.

Consider `COc1cccc2[nH]c(C(=O)N3C[C@@H]4CCC[C@@H]4[C@H]3C(=O)N[C@@H](CN3C[C@H](O)CC3=O)C(=O)C(=O)NC3CC3)cc12` [Compound 178], for which the IC50 was over 10 µM at HRV3C (setting [12]), at least 10 µM against human cathepsin L and 2 to 20 µM at 3CLpro (setting [10]). In addition, the EC50 in data set [3] (numeric bounds) is over 10 µM; in data set [4] (setting [8]), over 50 µM. For the same compound, the CC50 is over 10 µM in “in vitro [5]” and over 50 µM in “in vitro [6]” (setting [11]).

In the case of `COc1cccc2[nH]c(C(=O)N3CCC4(CC4)C[C@H]3C(=O)N[C@@H](C[C@@H]3CCNC3=O)C(=O)C(=O)NC3CC3)cc12` [Compound 179], the IC50 on HRV3C (setting [7]) is 0.2 to 2 µM; at human cathepsin L, 1 to 10 µM; on 3CLpro (setting [10]), under 0.02 µM. Besides, the EC50 in [3] (numeric bounds) is over 10 µM; in data set [4] (setting [8]) it was 10 to 100 µM. Also, the CC50 in “in vitro [5]” was over 10 µM; in “in vitro [6]” (setting [11]) it was over 50 µM.

For the compound `O=C(NC1CC1)C(=O)[C@H](C[C@@H]1CCNC1=O)NC(=O)[C@@H]1CC2(CCN1C(=O)c1cc3c(C4CC4)cccc3[nH]1)CC2` [Compound 180], the IC50 on HRV3C (setting [7]) was 0.2 to 2 µM; on human cathepsin L, 1 to 10 µM; on 3CLpro (setting [10]), 0.02 to 0.2 µM. The 50% effective concentration (EC50) in data set [3] (class symbols) and in [4] (setting [8]) was 1 to 10 µM each time. The CC50 in the data set “in vitro [5]” is over 10 µM; in “in vitro [6]” (setting [11]), over 50 µM.

Regarding `O=C(NC1CC1)C(=O)[C@H](C[C@@H]1CCNC1=O)NC(=O)[C@@H]1CC2(CCN1C(=O)c1cc3ccccc3o1)CC2` [Compound 181], the IC50 is 0.2 to 2 µM on HRV3C (setting [7]), 1 to 10 µM at human cathepsin L and 0.02 to 0.2 µM on 3CLpro (setting [10]). The EC50 in data set [3] (class symbols) and in data set [4] (setting [8]) was 1 to 10 µM in each case. Moreover, the figures for the CC50 in “in vitro [5]” and in “in vitro [6]” (setting [11]) were over 10 µM and over 50 µM, respectively.

Regarding `O=C(NCCCC(F)(F)F)C(=O)[C@H](C[C@@H]1CCNC1=O)NC(=O)[C@@H]1[C@H]2CCC[C@H]2CN1C(=O)c1cc2c(Cl)cc(Cl)cc2[nH]1` [Compound 182], the IC50 at HRV3C (setting [12]) is over 10 µM; against human cathepsin L, at least 10 µM; at 3CLpro (setting [10]), 0.2 to 2 µM. The EC50 was over 10 µM in data set [3] (numeric bounds) and 1 to 10 µM in [4] (setting [8]). Also, the CC50 in “in vitro [5]” is 1 to 10 µM; in “in vitro [6]” (setting [9]), over 10 µM.

On to `CC(C)CCCNC(=O)C(=O)[C@H](C[C@@H]1CCNC1=O)NC(=O)[C@@H]1[C@H]2CCC[C@H]2CN1C(=O)c1cc2c(Cl)cc(Cl)cc2[nH]1` [Compound 183], for which the IC50 was over 10 µM at HRV3C (setting [12]), 1 to 10 µM at human cathepsin L and 0.02 to 0.2 µM on 3CLpro (setting [10]). In addition, the EC50 was 1 to 10 µM in data set [3] (class symbols) and under 1 µM in [4] (setting [8]). The CC50 in “in vitro [5]” and in the data set “in vitro [6]” (setting [9]) was 1 to 10 µM throughout.

The term IC50 denotes the concentration at which inhibition is half-maximal. By EC50 is commonly meant the concentration giving half of the maximal effect.

For the origin of these results see US11952365B2, “Anti-viral compounds” (Aligos Therapeutics, Inc., priority 2020, dated 2024).
